{"source": "patent US20080159962A1", "about": "“Use of Inhibitors of the Renin-Angiotensin System for the Treatment of Lung Injuries” (priority 2005, published 2008)", "format_in_all_cases": "in vivo", "key": {"AT2R": {"target": "T1, AT2R (Mus musculus, UniProt P35374)", "T1 construct": "from tissue; host or cells: live ace2 KO mice, lung elastance read-out", "T1 sequence (P35374 1-363)": "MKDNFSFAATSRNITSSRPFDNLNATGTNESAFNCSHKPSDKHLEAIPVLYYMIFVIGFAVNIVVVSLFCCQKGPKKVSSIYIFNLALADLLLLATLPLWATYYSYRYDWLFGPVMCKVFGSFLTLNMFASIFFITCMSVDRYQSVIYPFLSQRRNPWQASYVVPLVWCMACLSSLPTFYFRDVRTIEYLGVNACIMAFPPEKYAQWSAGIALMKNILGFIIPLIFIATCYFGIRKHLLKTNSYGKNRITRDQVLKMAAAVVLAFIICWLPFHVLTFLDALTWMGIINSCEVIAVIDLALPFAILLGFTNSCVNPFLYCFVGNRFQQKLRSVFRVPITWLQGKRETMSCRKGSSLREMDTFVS", "test": "AT2R inhibitor study in acid-induced ALI of ace2 KO mice", "conditions": "acid-treated ace2 KO mice, 15 mg/kg i.p., 3 hrs (FIG. 10b)", "procedure": "(§1) Experimental murine ALI models: For acid aspiration-induced ALI, 2.5-3 month old mice were anaesthetized with ketamin (75 mg/kg) and xylazine (20 mg/kg) i.p., tracheostomized and ventilated with a volume control constant flow ventilator (Voltek Enterprises, Canada). Volume recruitment manoeuvre (VRM) (25 cmH2O, 3 sec) was performed to standardize volume history and measurements were made as baseline. After intratracheal instillation of HCl (pH=1.5; 2 ml/kg), followed by a VRM (35 cmH2O, 3 seconds), animals were ventilated for 3 hrs (FIO2 1.0). Saline-treated groups served as controls. […] All animals were monitored throughout an 18-hrs recovery period. […] In all experimental ALI models, total PEEP (PEEPt) and plateau pressure (Pplat) were measured at the end of expiratory and inspiratory occlusion, respectively, and elastance was calculated as Pplat minus PEEPt)/VT every 30 minutes during the ventilation periods. […]\nAT1R/AT2R inhibitor studies: Mice (2.5-3 months old) received the AT1R inhibitor Losartan (15 mg/kg), the AT2R inhibitor PD123.319 (15 mg/kg), or control vehicle i.p. 30 min before surgical procedures. […] Animals were then ventilated for 3 hrs and analyzed as above."}, "AT1R [1]": {"target": "T2, AT1R (Mus musculus, UniProt P29754)", "T2 sequence (P29754 whole entry)": "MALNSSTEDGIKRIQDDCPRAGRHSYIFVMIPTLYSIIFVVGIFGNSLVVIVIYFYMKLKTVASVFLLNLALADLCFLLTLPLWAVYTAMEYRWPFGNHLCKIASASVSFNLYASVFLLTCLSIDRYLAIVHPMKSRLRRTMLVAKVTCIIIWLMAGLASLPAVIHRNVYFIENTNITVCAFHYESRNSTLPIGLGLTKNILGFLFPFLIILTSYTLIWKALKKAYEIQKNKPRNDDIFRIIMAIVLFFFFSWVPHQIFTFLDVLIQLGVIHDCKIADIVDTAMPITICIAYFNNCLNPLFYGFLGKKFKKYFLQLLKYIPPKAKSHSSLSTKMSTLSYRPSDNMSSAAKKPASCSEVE", "test": "AT1R inhibitor study in acid-induced ALI of ace2 KO mice", "conditions": "acid-treated ace2 KO mice", "procedure": "as §1\nAssessment of blood oxygenation, pulmonary oedema, and pulmonary vascular permeability: At the end of the experiments, blood samples were obtained from the left heart ventricle and PaO2 was measured (Ciba-Corning Model 248, Bayer, Leverkusen, Germany) to assess arterial blood oxygenation as an indicator for respiratory failure. To assess pulmonary oedemas, the lung wet/dry weight ratios were calculated. […]"}, "AT1R [2]": {"target": "T2, AT1R"}, "BK2": {"target": "T3, BK2 (Mus musculus, UniProt P32299)", "T3 construct": "from tissue; host or cells: live ace2 KO mice, lung elastance read-out", "T3 sequence (P32299 1-392)": "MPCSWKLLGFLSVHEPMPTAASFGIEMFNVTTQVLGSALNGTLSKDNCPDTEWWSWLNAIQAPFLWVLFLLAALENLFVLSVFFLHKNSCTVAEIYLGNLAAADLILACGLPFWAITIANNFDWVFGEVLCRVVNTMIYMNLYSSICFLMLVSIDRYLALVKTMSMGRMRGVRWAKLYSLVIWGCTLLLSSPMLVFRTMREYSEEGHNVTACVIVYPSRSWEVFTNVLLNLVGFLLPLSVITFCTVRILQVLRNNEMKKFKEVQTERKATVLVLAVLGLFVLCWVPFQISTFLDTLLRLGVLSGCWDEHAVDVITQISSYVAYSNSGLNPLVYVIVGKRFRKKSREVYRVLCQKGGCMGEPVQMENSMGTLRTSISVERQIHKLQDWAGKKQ", "test": "Bradykinin receptor inhibitor study (BK2) in acid aspiration-induced ALI of ace2 KO mice", "conditions": "acid-treated ace2 KO mice, 1.5 mg/kg i.p. 30 min before surgical procedures, 3 hrs (FIG. 17)", "procedure": "Murine acid aspiration-induced lung injury model: For acid aspiration-induced ALI, 2.5-3 month old mice were anaesthetized with ketamin (75 mg/kg) and xylazine (20 mg/kg) i.p., tracheostomized and ventilated with a volume control constant flow ventilator (Voltek Enterprises). Volume recruitment manoeuvre (VRM) (25 cmH2O, 3 sec) was performed to standardize volume history and measurements were made as baseline. After intratracheal instillation of HCl (pH=1.5; 2 ml/kg), followed by a VRM (35 cmH2O, 3 seconds), animals were ventilated for 3 hrs (FIO2 1.0). Total PEEP (PEEPt) and plateau pressure (Pplat) were measured at the end of expiratory and inspiratory occlusion, respectively, and elastance was calculated as Pplat minus PEEPt)/VT every 30 minutes during the ventilation periods.\nBradykinin receptors inhibitor studies: Ace2 KO mice (2.5-3 months old) received the BK1 inhibitor (des Arg HOE, Sigma, 1.5 mg/kg), the BK2 inhibitor (HOE 140, Sigma, 1.5 mg/kg), or control vehicle i.p. 30 min before surgical procedures. After HCl instillation, animals were randomized into groups: (1) ace2 KO, acid, vehicle control; (2) ace2 KO, acid, BK1 inhibitor; (3) ace2 KO, acid, BK2 inhibitor. Animals were then ventilated for 3 hrs and analyzed as above."}}, "note": "Like-named read-outs stand apart in the source and are kept apart here."}
{"smiles": "Cc1cc(Cn2cnc3c2C[C@@H](C(=O)O)N(C(=O)C(c2ccccc2)c2ccccc2)C3)ccc1N(C)C", "note": "[PD123.319]", "values": [{"measurement": "severe acute lung injury phenotypes (lung elastance)", "setting": "AT2R", "value": "had no apparent effect"}]}
{"smiles": "CCCCc1nc(Cl)c(CO)n1Cc1ccc(-c2ccccc2-c2nn[nH]n2)cc1", "note": "[Losartan]", "values": [{"measurement": "severity of ALI (lung elastance)", "setting": "AT1R [1]; 15 mg/kg i.p. 30 min before surgical procedures, 3 hrs (FIG. 10b)", "value": "attenuated the severity of ALI"}, {"measurement": "acid-induced pulmonary oedema (wet to dry weight ratio)", "setting": "AT1R [1]; 15 mg/kg, 3 hrs (FIG. 16b)", "value": "attenuated acid-induced pulmonary oedema"}, {"measurement": "acute severe lung injury (lung elastance)", "setting": "AT1R [2]; acid plus Spike-Fc challenged WT mice, 15 mg/kg (FIG. 5c)", "value": "attenuates SARS Spike-mediated severe acute lung injury"}, {"measurement": "acute severe lung injury (lung elastance)", "setting": "AT1R [2]; mouse, in vivo", "value": "attenuated acute severe lung injury"}, {"measurement": "pulmonary oedema (wet to dry weight ratio)", "setting": "AT1R [2]; mouse, in vivo", "value": "attenuated pulmonary oedema"}]}
{"smiles": "NC(N)=NCCC[C@@H](N)C(=O)N[C@@H](CCCN=C(N)N)C(=O)N1CCC[C@H]1C(=O)N1C[C@H](O)C[C@H]1C(=O)NCC(=O)N[C@@H](Cc1cccs1)C(=O)N[C@@H](CO)C(=O)N1Cc2ccccc2C[C@@H]1C(=O)N1[C@H](C(=O)N[C@@H](CCCN=C(N)N)C(=O)O)C[C@@H]2CCCC[C@@H]21", "note": "[BK2 inhibitor, DArg[Hyp^3,Thi^5,DTic^7,Oic^8]-bradykinin]", "values": [{"measurement": "lung failure assessed by pulmonary elastance", "setting": "BK2", "value": "improved the lung failure"}]}
